Values quoted from earlier work as cited in US20230372346A1, “TREATMENT REGIMENS FOR EXON-20 INSERTION MUTANT EGFR CANCERS” (CULLINAN PEARL CORP., priority 2020, published 2023).

Conditions: human, in vivo; cited from earlier work

C=CC(=O)Nc1cc(Nc2ncc(C(=O)OC(C)C)c(-c3cn(C)c4ccccc34)n2)c(OC)cc1N(C)CCN(C)C [TAK-788, mobocertinib]
toxicity in the lowest-dose cohort where stable diseases or partial responses were observed: presented both grade 3 or above TRAEs and dose-limiting toxicities
